Results taken from patent publication US10711004B2 (Genentech, Inc., priority 2018, dated 2020).
Like-named read-outs stand apart in the source and are kept apart here.

Target: human TRPA1 channel (Homo sapiens (Human), UniProt O75762)
Test: hTRPA1 CHO Ca2+ FLIPR Tetra assay, block of cinnamaldehyde induced calcium influx
Assay type: cell-based
Conditions: for IC50: CHO cells expressing TRPA1, Hill coefficient fixed to 1.5
Method in brief: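 IC50 values come from fixed-Hill fits of inhibition of cinnamaldehyde-induced (about EC50 level) calcium influx measured by FLIPR Tetra. Before agonist, TRPA1-expressing CHO cells loaded with calcium indicator were exposed to compound for 10 or 90 min at room temperature in HEPES-buffered HBSS, pH 7.4, with 0.02% BSA.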

[1] = read-out: hTRPA1 IC50 (10 min), compounds incubated 10 minutes at room temperature before cinnamaldehyde agonist
[2] = read-out: hTRPA1 IC50 (90 min), compounds incubated 90 minutes at room temperature before cinnamaldehyde agonist

Sequence of human TRPA1 channel (O75762 whole entry): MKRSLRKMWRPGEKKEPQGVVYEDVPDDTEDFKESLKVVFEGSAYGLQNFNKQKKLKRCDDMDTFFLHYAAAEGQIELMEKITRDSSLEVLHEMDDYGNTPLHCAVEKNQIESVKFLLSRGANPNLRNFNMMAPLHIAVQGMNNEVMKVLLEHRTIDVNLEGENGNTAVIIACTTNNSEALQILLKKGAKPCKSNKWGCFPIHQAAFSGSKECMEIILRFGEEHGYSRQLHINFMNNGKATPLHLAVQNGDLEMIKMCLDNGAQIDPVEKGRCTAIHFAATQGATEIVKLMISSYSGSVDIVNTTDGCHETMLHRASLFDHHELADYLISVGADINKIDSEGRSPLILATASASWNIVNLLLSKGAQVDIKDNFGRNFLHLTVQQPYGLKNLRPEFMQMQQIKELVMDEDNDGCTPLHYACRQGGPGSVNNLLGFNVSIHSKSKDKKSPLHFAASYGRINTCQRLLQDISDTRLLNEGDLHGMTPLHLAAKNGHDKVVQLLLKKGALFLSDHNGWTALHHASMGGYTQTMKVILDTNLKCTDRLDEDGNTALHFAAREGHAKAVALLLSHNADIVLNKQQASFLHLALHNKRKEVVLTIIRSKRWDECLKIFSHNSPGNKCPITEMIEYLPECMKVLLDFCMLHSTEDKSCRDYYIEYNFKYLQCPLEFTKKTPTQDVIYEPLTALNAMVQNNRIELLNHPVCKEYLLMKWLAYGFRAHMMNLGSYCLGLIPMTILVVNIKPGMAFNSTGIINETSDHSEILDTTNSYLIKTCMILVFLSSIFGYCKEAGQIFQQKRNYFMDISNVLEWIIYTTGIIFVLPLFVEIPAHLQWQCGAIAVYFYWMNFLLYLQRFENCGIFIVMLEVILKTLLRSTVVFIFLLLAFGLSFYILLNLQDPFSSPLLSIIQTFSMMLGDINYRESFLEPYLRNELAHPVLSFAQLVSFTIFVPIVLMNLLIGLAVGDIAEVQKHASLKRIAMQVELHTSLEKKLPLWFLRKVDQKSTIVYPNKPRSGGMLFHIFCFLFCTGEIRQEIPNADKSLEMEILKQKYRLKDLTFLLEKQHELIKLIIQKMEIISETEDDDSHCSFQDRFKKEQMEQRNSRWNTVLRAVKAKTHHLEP

| IC50 [1] [nM] | IC50 [2] [nM] | Compound | other results |
| --- | --- | --- | --- |
| 18.5 | 7.8 | Cn1cnc2ncn(Cc3nc([C@@H]4[C@H]5C=C(c6cccc(Cl)c6)C[C@H]54)no3)c(=O)c21 [Example Compound 185, 1-((3-((1R,5R,6S)-3-(3-chlorophenyl)bicyclo[3.1.0]hex-2-en-6-yl)-1,2,4-oxadiazol-5-yl)methyl)-7-methyl-1,7-dihydro-6H-purin-6-one] | TRPA1 IC50 compared with 3-azabicyclo[3.1.0]hexene linker and cyclobutylene linker analogues (bicyclo[3.1.0]hexene linker compounds versus same-substituent analogues (compounds 16, 191; 26, 1)): improved TRPA1 IC50 values |
| 78.2 | 18 | Cn1cnc2ncn(Cc3nc([C@H]4[C@@H]5CN(c6cc(F)c(C#N)c(F)c6)C[C@@H]54)no3)c(=O)c21 [Example Compound 258, 2,6-difluoro-4-[(1S,5R)-6-[5-[(7-methyl-6-oxo-purin-1-yl)methyl]-1,2,4-oxadiazol-3-yl]-3-azabicyclo[3.1.0]hexan-3-yl]benzonitrile] |  |
| 232 | 140 | O=c1c2cccnc2ncn1Cc1nc([C@H]2C[C@H](Oc3cccc(F)c3)C2)no1 [Example Compound 147, 3-((3-((1r,3r)-3-(3-fluorophenoxy)cyclobutyl)-1,2,4-oxadiazol-5-yl)methyl)pyrido[2,3-d]pyrimidin-4(3H)-one] |  |
| 33.1 |  | O=c1c2ccncc2ncn1Cc1nc([C@H]2[C@@H]3CN(c4cccc(Cl)c4)C[C@@H]32)no1 [Example Compound 230, 3-((3-((1R,5S,6r)-3-(3-chlorophenyl)-3-azabicyclo[3.1.0]hexan-6-yl)-1,2,4-oxadiazol-5-yl)methyl)pyrido[3,4-d]pyrimidin-4(3H)-one] |  |
| 31 |  | Cn1cnc2ncn(Cc3nc([C@H]4[C@@H]5CN(c6ccc(F)cc6)C[C@@H]54)no3)c(=O)c21 [Example Compound 7, 7-methyl-1-[[3-[(1R,5S,6 r)-3-(4-fluorophenyl)-3-azabicyclo[3.1.0]hexan-6-yl]-1,2,4-oxadiazol-5-yl]methyl]purin-6-one] |  |
|  |  | Cn1cnc2ncn(Cc3nc([C@@H]4[C@H]5Cc6ccccc6[C@H]54)no3)c(=O)c21 (stereo in doubt) [Example Compound 2, 7-methyl-1-[[3-[rac-(1R,1aR,6aS)-1,1a,6,6a-tetrahydrocyclopropa[a]inden-1-yl]-1,2,4-oxadiazol-5-yl]methyl]purin-6-one] | IC50 (compounds incubated 10 minutes at room temperature before cinnamaldehyde agonist): 277 nM |
| 16.6 | 19 | Cn1cnc2ncn(Cc3nc([C@H]4C[C@H](Cc5cccc(Cl)c5)C4)no3)c(=O)c21 [Example Compound 257, 1-[[3-[trans-3-[(3-chlorophenyl)methyl]cyclobutyl]-1,2,4-oxadiazol-5-yl]methyl]-7-methyl-purin-6-one] |  |
| 797 | 480 | Cn1cnc2ncn(Cc3nc([C@H]4[C@@H]5CN(c6cncc(C(F)(F)F)c6)C[C@@H]54)no3)c(=O)c21 [Example Compound 145, 7-methyl-1-((3-((1R,5S,6r)-3-(5-(trifluoromethyl)pyridin-3-yl)-3-azabicyclo[3.1.0]hexan-6-yl)-1,2,4-oxadiazol-5-yl)methyl)-1,7-dihydro-6H-purin-6-one] |  |
| 13 | 30 | Cc1ccnc2ncn(Cc3nc([C@H]4C[C@](F)(c5ccc(F)cc5)C4)no3)c(=O)c12 [Example Compound 196, 3-((3-((1s,3s)-3-fluoro-3-(4-fluorophenyl)cyclobutyl)-1,2,4-oxadiazol-5-yl)methyl)-5-methylpyrido[2,3-d]pyrimidin-4(3H)-one] |  |
| 158 |  | COc1cccc(N2C[C@@H]3[C@H](C2)[C@H]3c2noc(Cn3cnc4ncn(C)c4c3=O)n2)c1 [Example Compound 13, 7-methyl-1-[[3-[(1R,5S,6 r)-3-(3-methoxyphenyl)-3-azabicyclo[3.1.0]hexan-6-yl]-1,2,4-oxadiazol-5-yl]methyl]purin-6-one] |  |
| 14.9 | 2 | Cn1cnc2ncn(Cc3nc([C@H]4[C@@H]5C=C(c6cc(F)c(F)c(F)c6)C[C@@H]54)no3)c(=O)c21 [Example Compound 251, 7-methyl-1-[[3-[(1S,5S,6R)-3-(3,4,5-trifluorophendyl)-6-bicyclo[3.1.0]hex-2-enyl]-1,2,4-oxadiazol-5-yl]methyl]purin-6-one] |  |
| 31.9 | 26 | Cn1cnc2ncn(Cc3nc([C@H]4[C@@H]5C=C(c6cccc(C(F)F)c6)C[C@@H]54)no3)c(=O)c21 [Example Compound 103, 1-((3-((1S,5S,6R)-3-(3-(difluoromethyl)phenyl)bicyclo[3.1.0]hex-2-en-6-yl)-1,2,4-oxadiazol-5-yl)methyl)-7-methyl-1,7-dihydro-6H-purin-6-one] |  |
| 50.8 |  | Cc1ccnc2ncn(Cc3nc([C@H]4[C@@H]5CN(c6cc(Cl)ccn6)C[C@@H]54)no3)c(=O)c12 [Example Compound 168, 3-((3-((1R,5S,6r)-3-(4-chloropyridin-2-yl)-3-azabicyclo[3.1.0]hexan-6-yl)-1,2,4-oxadiazol-5-yl)methyl)-5-methylpyrido[2,3-d]pyrimidin-4(3H)-one] |  |
| 19.1 | 6.3 | Cn1cnc2ncn(Cc3nc([C@@H]4[C@H]5C=C(c6ccc(F)c(F)c6F)C[C@H]54)no3)c(=O)c21 [Example Compound 242, 7-methyl-1-[[3-[(1R,5R,6S)-3-(2,3,4-trifluorophenyl)-6-bicyclo[3.1.0]hex-2-enyl]-1,2,4-oxadiazol-5-yl]methyl]purin-6-one] |  |
| 65.1 | 52 | O=c1c2cccnc2ncn1Cc1nc([C@H]2[C@@H]3CN(c4cc(Cl)ccn4)C[C@@H]32)no1 [Example Compound 183, 3-((3-((1R,5S,6r)-3-(4-chloropyridin-2-yl)-3-azabicyclo[3.1.0]hexan-6-yl)-1,2,4-oxadiazol-5-yl)methyl)pyrido[2,3-d]pyrimidin-4(3H)-one] |  |
| 15.2 | 12 | Cn1cnc2ncn(Cc3nc([C@@H]4[C@H]5C=C(c6ccc(Cl)cc6)C[C@H]54)no3)c(=O)c21 [Example Compound 142, 1-((3-((1R,5R,6S)-3-(4-chlorophenyl)bicyclo[3.1.0]hex-2-en-6-yl)-1,2,4-oxadiazol-5-yl)methyl)-7-methyl-1,7-dihydro-6H-purin-6-one] |  |
| 15.1 | 5.5 | Cc1cnn2ncn(Cc3nc([C@H]4[C@@H]5CN(c6cc(Cl)ccn6)C[C@@H]54)no3)c(=O)c12 [Example Compound 138, 3-((3-((1R,5S,6r)-3-(4-chloropyridin-2-yl)-3-azabicyclo[3.1.0]hexan-6-yl)-1,2,4-oxadiazol-5-yl)methyl)-5-methylpyrazolo[5,1-f][1,2,4]triazin-4(3H)-one] |  |
| 78.5 |  | O=c1c2cccnc2ncn1Cc1nc([C@H]2C[C@H](c3ccc(Cl)cc3)C2)no1 [Example Compound 208, 3-((3-((1r,3r)-3-(4-chlorophenyl)cyclobutyl)-1,2,4-oxadiazol-5-yl)methyl)pyrido[2,3-d]pyrimidin-4(3H)-one] |  |
| 7.31 |  | Cn1cnc2ncn(Cc3nc([C@H]4[C@@H]5CN(c6ccc7ccccc7c6)C[C@@H]54)no3)c(=O)c21 [Example Compound 33, 7-methyl-1-[[3-[(1R,5S,6r)-3-[2-naphthyl]-3-azabicyclo[3.1.0]hexan-6-yl]-1,2,4-oxadiazol-5-yl]methyl]purin-6-one] |  |
| 37.6 |  | Cc1cc(C#N)nc2ncn(Cc3nc([C@H]4C[C@](F)(c5ccc(F)cc5)C4)no3)c(=O)c12 [Example Compound 166, 3-((3-((1s,3s)-3-fluoro-3-(4-fluorophenyl)cyclobutyl)-1,2,4-oxadiazol-5-yl)methyl)-5-methyl-4-oxo-3,4-dihydropyrido[2,3-d]pyrimidine-7-carbonitrile] |  |
| 29.7 | 6.7 | Cn1cnc2ncn(Cc3nc([C@H]4[C@@H]5CN(c6c(F)ccc(Cl)c6F)C[C@@H]54)no3)c(=O)c21 [Example Compound 222, 1-((3-((1R,5S,6r)-3-(3-chloro-2,6-difluorophenyl)-3-azabicyclo[3.1.0]hexan-6-yl)-1,2,4-oxadiazol-5-yl)methyl)-7-methyl-1,7-dihydro-6H-purin-6-one] |  |
| 12.2 |  | Cc1ccnc2ncn(Cc3nc([C@H]4C[C@H](c5cccc(Cl)c5)C4)no3)c(=O)c12 |  |
| 94 | 41 | Cn1cnc2ncn(Cc3nc([C@H]4[C@@H]5CN(c6ccc7scnc7c6)C[C@@H]54)no3)c(=O)c21 [Example Compound 221, 1-((3-((1R,5S,6r)-3-(benzo[d]thiazol-5-yl)-3-azabicyclo[3.1.0]hexan-6-yl)-1,2,4-oxadiazol-5-yl)methyl)-7-methyl-1,7-dihydro-6H-purin-6-one] |  |
| 13.8 |  | O=c1c2cccnc2ncn1Cc1nc([C@H]2[C@@H]3CN(c4cccc(Cl)c4)C[C@@H]32)no1 [Example Compound 216, 3-((3-((1R,5S,6r)-3-(3-chlorophenyl)-3-azabicyclo[3.1.0]hexan-6-yl)-1,2,4-oxadiazol-5-yl)methyl)pyrido[2,3-d]pyrimidin-4(3H)-one] | IC50 (compounds incubated 90 minutes at room temperature before cinnamaldehyde agonist): 13 nM |
| 50.1 |  | Cn1cnc2ncn(Cc3nc([C@H]4[C@@H]5CN(c6cccc(-n7cccn7)c6)C[C@@H]54)no3)c(=O)c21 [Example Compound 202, 1-((3-((1R,5S,6r)-3-(3-(1H-pyrazol-1-yl)phenyl)-3-azabicyclo[3.1.0]hexan-6-yl)-1,2,4-oxadiazol-5-yl)methyl)-7-methyl-1,7-dihydro-6H-purin-6-one] |  |
| 84.7 | 25 | Cn1cnc2ncn(Cc3nc([C@H]4[C@@H]5CN(c6cc(Cl)ccn6)C[C@@H]54)no3)c(=O)c21 [Example Compound 212, 1-((3-((1R,5S,6r)-3-(4-chloropyridin-2-yl)-3-azabicyclo[3.1.0]hexan-6-yl)-1,2,4-oxadiazol-5-yl)methyl)-7-methyl-1,7-dihydro-6H-purin-6-one] |  |
